Test results reported in US3966737A, “Fluoro-substituted dibenso[b,f] thiepins” (priority 1973, dated 1976).
Entries after “also recorded” stand apart in the source; their conditions may differ.

How the values were obtained:
Assay type in all cases: in vivo
[1] = cataleptic effect in rats (intraperitoneal); conditions: for TD50 at 6 h: recorded every 30 minutes over 6 hours, read-out: ED50 (dose at which 50% of the animals are cataleptic)
Protocol: The following compounds were tested:
The test animals are considered to be cataleptic when the homolateral extremities remain in the crossed position for at least 10 seconds. The number of cataleptic animals is recorded every 30 minutes over a 6-hour period.

[2] = Rotating Rod Test (coordinated motor performance of mice); conditions: for ED50: Mus musculus, po, read-out: ED50 (dose which reduces the holding on period of the mice by 50%); for activity in the Rotating Rod Test (in words): compared with chlorpromazine
Protocol: In the Rotating Rod Test, the ability of mice to achieve a coordinated motor performance is investigated. After peroral administration of the test substance, the mice are placed upon a horizontal slowly rotating rod and the time they remain […] the rod is recorded.

[3] = test system: turnover of dopamine in the basal ganglions; test: Determination of Homovanillinic Acid (HVA) in rat brain; conditions: rats; for Increase in HVA, %: two hours, titer in untreated rats set at 100%
Description: […] Thereafter, the homovanillinic acid is extracted from the supernatant portion of a homogenized mixture of the brains of the treated rats into butyl acetate and later into an aqueous solution and is oxidized with potassium ferric cyanide to a fluorescent dimer. […] The homovanillinic acid titer in untreated rats is arbitrarily set at 100%.

[4] = "Pole Climbing" Test, conditioned reaction and unconditioned reaction of rats; conditions: for ED50: Rattus norvegicus, po, read-out: ED50 (Blocking of the conditioned reaction); for Quotient-ED10 (Blocking of the unconditioned reaction)/ED50 (Blocking of the conditioned reaction): higher quotient = stronger selectivity of the neuroleptic effect
Description: The test provides information regarding the behavioral reactions of rats. Rats are trained to avoid an electrical stimulus (unconditioned stimulation) which is effected through a base grid a few seconds after an acoustical signal (conditioned stimulation) by climbing up a vertical rod in the test chamber. The blocking of the conditioned reaction is expressed by the parameter ED50 (mg/kg. p.o.), the blocking of the unconditioned reaction is expressed by the parameter ED10 (mg/kg. p.o.).

[5] = rat, in vivo, ip, rats, intraperitoneal
[6] = rats, intraperitoneal, as compared to chlorpromazine

Row | SMILES | cataleptic effect (in words) ([1]; rat, in vivo, ip) | ED50 [2] | Increase in HVA, % ([3]; 20 mg/kg p.o.) | ED50 [4] | Quotient-ED10 (Blocking of the unconditioned reaction)/ED50 (Blocking of the conditioned reaction) ([4]; rats, p.o.) | TD50 at 6 h [1, 5] | cataleptic effect (in words) [1, 6] | ED50 ([2]; mice, peroral) | activity in the Rotating Rod Test (in words) ([2]; mice, peroral, maleate) | activity in the HVA test relative to chlorpromazine (in words) [3] | Increase in HVA, % ([3]; 50 mg/kg p.o.) | ED50 ([4]; rats, p.o.) | quality (selectivity) of the neuroleptic activity relative to chlorpromazine (in words) ([4]; rats, p.o.) | strength of the neuroleptic activity relative to chlorpromazine (in words) ([4]; rats, p.o.) | activity in the Rotating Rod Test (in words) ([2]; mice, peroral)
1 | CN(C)CCCN1c2ccccc2Sc2ccc(Cl)cc21 [Chlorpromazine, chlorpromazine, reference compound] | does demonstrate cataleptic effects | 5 mg/kg | 321% | 11.6 mg/kg | 3.5 |  |  |  |  |  |  |  |  |  | 
2 | CN1CCN(C2Cc3cc(Cl)ccc3Sc3cc(F)ccc32)CC1.O=C(O)/C=C\C(=O)O (stereo not drawn) [Product A, 1-(2-chloro-7-fluoro-10,11-dihydro-dibenzo[b,f]thiepin-10-yl)-4-methylpiperazine maleate] |  |  |  |  | 3.3 | 70 mg/kg | only very weak cataleptic effect | 5.8 mg/kg | strong activity; also recorded: activity approximates that of chlorpromazine | nearly as potent as that of chlorpromazine | 280% | 30 mg/kg | about equal to that of chlorpromazine | about half that of chlorpromazine | 
3 | CN1CCN(C2Cc3ccc(Cl)cc3Sc3ccc(F)cc32)CC1.O=C(O)/C=C\C(=O)O (stereo not drawn) [Product B, 1-(3-chloro-8-fluoro-10,11-dihydro-dibenzo[b,f]thiepin-10-yl)-4-methylpiperazine maleate] |  |  |  |  | 11.0 | 100 mg/kg | only very weak cataleptic effect | 3.1 mg/kg |  |  |  | 27 mg/kg | considerably superior to that of chlorpromazine | about half of that of chlorpromazine | superior to chlorpromazine
4 | O=C(O)/C=C\C(=O)O.OCCCN1CCN(C2Cc3cc(Cl)ccc3Sc3ccc(F)cc32)CC1 (stereo not drawn) [Product C, 4-(2-chloro-8-fluoro-10,11-dihydro-dibenzo[b,f]thiepin-10-yl)-1-piperazinepropanol maleate] |  |  |  |  |  | 64 mg/kg | only very weak cataleptic effect |  |  | nearly as potent as that of chlorpromazine | 273% |  |  |  | 
